Assay [1] addresses ePDZ-b1. As to conditions: cited from earlier work.
The target of assay [2] is T1, Erbin-PDZ-FN affinity clamp complex (Homo sapiens, UniProt Q96RT1).
T1 construct: made in house; host or cells: E. coli BL21(DE3)-RIL
The assay is described as follows: Induction of the TVMV-based allosteric receptor by PDZ ligands of different affinity. It counts as biochemical. As to conditions: FIG. 11C. The method, then: The maximum induction ratio of TVMV-based allosteric receptors (500 nM) was measured in a similar fashion in the presence or absence of the PDZ ligand peptide-1 ([…]) at a final concentration of 10 μM in protease assay buffer consisting of 50 mM Tris-HCl, 1 M NaCl, 1 mM DTT and 0.5 mM EDTA, pH 8.0. The reaction was generally initiated following the addition of TVMV substrate peptide (Table 1) to a final concentration of 10 μM.
A set of different allosterically regulated proteases was constructed by varying the composition of the three different linkers connecting TVMV to the Erbin-PDZ domain (Linker 1), the Erbin-PDZ domain to the FN3 domain (Linker 2) and the FN3 domain to the AI-domain (Linker 3). […] The largest modulation was effected by progressively shortening and lengthening linker L1.

By Kd is commonly meant the constant that tells how readily two partners part at equilibrium.

Chain of ePDZ-b1 (as listed by the source): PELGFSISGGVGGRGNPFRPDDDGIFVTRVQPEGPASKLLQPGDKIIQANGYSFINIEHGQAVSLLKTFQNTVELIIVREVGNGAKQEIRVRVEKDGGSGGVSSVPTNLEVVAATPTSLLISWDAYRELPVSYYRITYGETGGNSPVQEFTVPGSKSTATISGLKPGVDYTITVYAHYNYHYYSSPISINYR
T1 sequence (Q96RT1 with tags, fused parts or gaps limits assumed): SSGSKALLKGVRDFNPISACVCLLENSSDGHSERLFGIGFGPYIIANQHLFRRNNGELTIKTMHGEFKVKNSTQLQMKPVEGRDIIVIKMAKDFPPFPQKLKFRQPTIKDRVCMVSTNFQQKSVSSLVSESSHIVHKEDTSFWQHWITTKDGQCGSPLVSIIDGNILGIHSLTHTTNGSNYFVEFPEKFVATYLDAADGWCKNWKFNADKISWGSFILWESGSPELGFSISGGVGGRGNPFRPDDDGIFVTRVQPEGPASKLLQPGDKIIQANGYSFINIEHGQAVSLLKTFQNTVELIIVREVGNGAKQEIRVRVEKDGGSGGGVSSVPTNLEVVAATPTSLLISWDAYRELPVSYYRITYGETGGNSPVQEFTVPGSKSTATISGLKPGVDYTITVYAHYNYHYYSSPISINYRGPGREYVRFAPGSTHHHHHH

Consider PQPVDSWV [PDZ-Ligand 2], for which the Kd in assay [1] is approximately 5 nM. Besides, the “induction of activity compared to the higher affinity PDZ peptide ligand-1” value in assay [2] was “approximately 10 fold lower”.

Consider RGSIDTWV [PDZ-Ligand 1], for which the Kd in assay [1] is approximately 0.625 nM.

These data come from patent US9791436B2, “Protease-based biosensor” (priority 2012, dated 2017).
